Like-named read-outs stand apart in the source and are kept apart here.
Key:
[1] = biological target: T1, human cannabinoid CB2 receptor (Homo sapiens, UniProt P34972); test: In vitro affinity for cannabinoid-CB2 receptors ([3H]CP-55,940 radioligand binding, CHO cell membranes)
T1 construct: expressed in transfected cells; host or cells: Chinese hamster ovary (CHO) cells, membrane preparation
Description: (§1) The affinity of the compounds of the invention for cannabinoid CB2 receptors can be determined using membrane preparations of Chinese hamster ovary (CHO) cells in which the human cannabinoid CB2 receptor is stably transfected in conjunction with [^3H]CP-55,940 as radioligand. After incubation of a freshly prepared cell membrane preparation with the [^3H]-ligand, with or without addition of compounds of the invention, separation of bound and free ligand is performed by filtration over glassfiber filters. Radioactivity on the filter is measured by liquid scintillation counting.
The affinity of the compounds of the invention for cannabinoid CB2 receptors was determined as described above. From the binding affinity measured for a given compound of formula (I), one can estimate a theoretical lowest effective dose. At a concentration of the compound equal to twice the measured Ki-value, […] of the cannabinoid CB2 receptors likely will be occupied by the compound. Converting that concentration to mg of compound per kg of patient yields a theoretical lowest effective dose, assuming ideal bioavailability. Pharmacokinetic, pharmacodynamic, and other considerations may alter the dose actually administered to a higher or lower value. The dosage expediently administered is 0.001-1000 mg/kg, such as 0.1-100 mg/kg of patient's bodyweight.

[2] = biological target: T2, human cannabinoid CB1 receptor (Homo sapiens, UniProt P21554); test: In vitro affinity for cannabinoid-CB1 receptors ([3H]CP-55,940 radioligand binding, CHO cell membranes)
T2 construct: expressed in transfected cells; host or cells: Chinese hamster ovary (CHO) cells, membrane preparation
T2 sequence (P21554 whole entry): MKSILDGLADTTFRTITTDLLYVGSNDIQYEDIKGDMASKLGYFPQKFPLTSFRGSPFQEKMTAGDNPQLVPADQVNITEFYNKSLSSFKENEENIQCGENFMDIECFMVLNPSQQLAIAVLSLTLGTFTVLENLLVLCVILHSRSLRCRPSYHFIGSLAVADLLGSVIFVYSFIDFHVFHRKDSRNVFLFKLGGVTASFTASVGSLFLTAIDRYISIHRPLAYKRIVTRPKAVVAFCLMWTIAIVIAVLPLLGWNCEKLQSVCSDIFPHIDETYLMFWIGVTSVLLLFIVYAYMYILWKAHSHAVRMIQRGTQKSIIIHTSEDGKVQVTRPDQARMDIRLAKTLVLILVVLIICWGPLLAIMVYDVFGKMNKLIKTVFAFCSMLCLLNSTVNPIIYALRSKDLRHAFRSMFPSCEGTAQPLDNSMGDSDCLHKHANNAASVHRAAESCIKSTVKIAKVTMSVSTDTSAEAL
Description: as §1, with “CB1” for “CB2”

[3] = membranes of CHO cells stably transfected with human CB2 receptor, [3H]CP-55,940 radioligand, read-out: Human cannabinoid-CB2 receptor In vitro affinity - pKi value (converted)

T1 sequence (P34972 whole entry): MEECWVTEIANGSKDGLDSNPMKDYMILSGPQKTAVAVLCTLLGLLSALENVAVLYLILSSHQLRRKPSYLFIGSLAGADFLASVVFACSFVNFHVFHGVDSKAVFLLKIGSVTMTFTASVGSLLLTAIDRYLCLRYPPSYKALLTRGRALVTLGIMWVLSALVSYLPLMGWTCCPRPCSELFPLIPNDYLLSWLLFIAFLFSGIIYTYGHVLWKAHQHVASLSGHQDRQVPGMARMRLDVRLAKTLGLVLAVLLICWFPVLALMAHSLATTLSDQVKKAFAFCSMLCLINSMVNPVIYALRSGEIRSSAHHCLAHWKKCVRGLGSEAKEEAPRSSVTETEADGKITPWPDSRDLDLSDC

**Q.** With Cc1c(C(=O)NC23CC4CC(CC(C4)C2)C3)ncn1Cc1ccccc1 as the compound, how does the melting point read?
**A.** 182 to 184 °C

**Q.** For Cc1c(C(=O)N[C@H]2C(C)(C)[C@H]3CC[C@]2(C)C3)ncn1CCCNS(C)(=O)=O, which melting point is on record?
**A.** 149 to 156 °C

**Q.** Which melting point does the source give for O=C(NC12CC3CC(CC(C3)C1)C2)c1nc(Br)n(-c2ccccc2)c1Br here?
**A.** 228 to 231 °C

**Q.** For Cc1c(C(=O)Nc2cccc3ccccc23)ncn1-c1ccccc1, which melting point is on record?
**A.** 167 to 169 °C

**Q.** Which melting point does the source give for O=C(NC12CC3CC(CC(C3)C1)C2)c1nc(Cl)n(-c2ccccc2)c1Cl here?
**A.** 172 to 173 °C

**Q.** With Cc1nc(C(=O)Nc2cccc3ccccc23)c(C)n1-c1ccccc1.Cl as the compound, how does the melting point read?
**A.** 177 to 179 °C

**Q.** For Cc1nc(C(=O)N[C@@H]2C(C)(C)C3CC[C@@]2(C)C3)c(C)n1-c1ccccc1, which melting point is on record?
**A.** 130 to 132 °C

**Q.** Which melting point does the source give for Cc1c(C(=O)N[C@H]2C(C)(C)[C@H]3CC[C@]2(C)C3)ncn1-c1ccccc1 here?
**A.** 149 to 152 °C

**Q.** With Cc1nc(C(=O)NC23CC4CC(CC2C4)C3)c(C)n1-c1ccccc1 as the compound, how does the melting point read?
**A.** 147 to 150 °C

**Q.** With Cc1nc(C(=O)Nc2ccnc3cc(C(F)(F)F)ccc23)c(C)n1-c1ccccc1 as the compound, how does the melting point read?
**A.** 198.5 °C

**Q.** For Cc1nc(C(=O)Nc2ccc(C#N)c3ccccc23)c(C)n1-c1ccccc1, which melting point is on record?
**A.** 241.5 °C

**Q.** For CCCCc1c(C(=O)NC23CC4CC(CC(C4)C2)C3)nc(C)n1-c1ccccc1, which melting point is on record?
**A.** 171 to 172 °C

**Q.** For Cc1nc(C(=O)NC23CC4CC(CC(C4)C2)C3)c(C)n1-c1ccc2c(c1)OCCO2.Cl, which melting point is on record?
**A.** 221 to 223 °C

**Q.** With Cc1nc(C(=O)NN2CCCCC2)c(C)n1-c1ccccc1 as the compound, how does the melting point read?
**A.** 117 to 118 °C

**Q.** For CCc1nc(C(=O)Nc2cccc3ccccc23)c(CC)n1-c1ccccc1, which melting point is on record?
**A.** 123 to 125 °C

**Q.** With COC(=O)[C@H](Cc1ccccc1)NC(=O)c1cn(CCOc2ccccc2)cn1 [BMS-I, reference compound] as the compound, how does the Ki [1] read?
**A.** 0.398 µM

**Q.** Which Ki [1] does the source give for COC(=O)[C@H](Cc1ccccc1)NC(=O)c1cn(CCN2CCOCC2)cn1 [BMS-II, reference compound] here?
**A.** > 1 µM

**Q.** For CCCCCn1cnc(C(=O)N[C@@H](Cc2ccccc2)C(=O)OC)c1 [BMS-III, reference compound], which Ki [1] is on record?
**A.** 0.0631 µM

**Q.** With Cc1c(C(=O)NC23CC4CC(CC(C4)C2)C3)ncn1-c1ccccc1 [Compound 2] as the compound, how does the melting point read?
**A.** 214 to 219 °C

**Q.** Which melting point does the source give for Cc1c(C(=O)N[C@H]2C[C@H]3CC[C@]2(C)C3(C)C)ncn1-c1ccccc1 [Compound 4] here?
**A.** 209 to 212 °C

**Q.** For O=C(NC12CC3CC(CC(C3)C1)C2)c1cn(-c2ccccc2)cn1 [Compound 6], which melting point is on record?
**A.** 198 to 200 °C

**Q.** For O=C(NC1C2CC3CC(C2)CC1C3)c1cn(-c2ccccc2)cn1 (stereo not drawn) [Compound 7], which melting point is on record?
**A.** 232 to 234 °C

**Q.** Which melting point does the source give for Cc1nc(C(=O)NC23CC4CC(CC(C4)C2)C3)cn1-c1ccccc1 [Compound 8, N-adamantyl-2-methyl-1-phenyl-1H-imidazole-4-carboxamide] here?
**A.** 207 to 210 °C

**Q.** With Cc1nc(C(=O)NCC2CCC3C(C)(C)C34CC24)cn1-c1ccccc1 (stereo not drawn) [Compound 9] as the compound, how does the melting point read?
**A.** 124 to 127 °C

**Q.** What does the source list for Cc1nc(C(=O)NC23CC4CC(CC(C4)C2)C3)c(C)n1-c1ccccc1 [Compound 11]?
**A.** Ki [2]: > 1 µM; Ki [1]: 0.001 µM

**Q.** With COc1cccc(-n2c(C)nc(C(=O)NCC3CCC4C(C)(C)C45CC35)c2C)c1 (stereo not drawn) [Compound 12] as the compound, how does the melting point read?
**A.** 153 to 155 °C

**Q.** For Cc1nc(C(=O)NC23CC4CC(CC(C4)C2)C3)c(C)n1C1CCCCC1 [Compound 14], which Ki [2] is on record?
**A.** > 1 µM

**Q.** What about the Ki [1] of the same compound?
**A.** 0.00631 µM

**Q.** Which Ki [2] does the source give for CCc1c(C(=O)NC23CC4CC(CC(C4)C2)C3)nc(C)n1-c1ccccc1 [Compound 15] here?
**A.** 0.631 µM

**Q.** What about the Ki [1] of the same compound?
**A.** < 0.001 µM

**Q.** For CCc1nc(C(=O)NC23CC4CC(CC(C4)C2)C3)cn1-c1ccccc1 [Compound 20], which Ki [2] is on record?
**A.** 0.251 µM

**Q.** What about the Ki [1] of the same compound?
**A.** 0.01 µM

**Q.** For Cc1c(C(=O)NCC2CCC3C(C)(C)C34CC24)ncn1CCCNS(C)(=O)=O (stereo not drawn) [Compound 22], which melting point is on record?
**A.** 84 to 108 °C

**Q.** For CCCCCCC(=O)c1nc(C)n(-c2ccccc2)c1C [Compound 26], which Ki [1, 3] is on record?
**A.** 0.158 µM

**Q.** For O=C(NC12CC3CC(CC(C3)C1)C2)c1ncn(-c2ccccc2)c1Br [Compound 27, N-(adamant-1-yl)-5-bromo-1-phenyl-1H-imidazole-4-carboxamide], which melting point is on record?
**A.** 229 to 232 °C

**Q.** For Cc1nc(C(=O)NC23CC4CC(CC(C4)C2)C3)c(Br)n1-c1ccccc1 [Compound 33A], which Ki ([2]; membranes of CHO cells stably transfected with human CB1 receptor, [3H]CP-55,940 radioligand, read-out: Human cannabinoid-CB1 receptor In vitro affinity - pKi (converted)) is on record?
**A.** 0.794 µM

**Q.** What about the Ki [1] of the same compound?
**A.** 0.00631 µM

**Q.** With Cc1nc(C(=O)NC23CC4CC(CC(C4)C2)C3)c(Cl)n1-c1ccccc1 [Compound 33] as the compound, how does the Ki [1] read?
**A.** 0.00794 µM

**Q.** Which Ki [1, 3] does the source give for Cc1nc(C(=O)NCc2ccccc2C(F)(F)F)c(C)n1-c1ccccc1 [Compound 44] here?
**A.** 0.00158 µM

**Q.** And the melting point?
**A.** 76 to 79 °C

**Q.** For Cc1nc(C(=O)Nc2cccc3ncccc23)c(C)n1-c1ccccc1 [Compound 46], which melting point is on record?
**A.** 139 to 141 °C

**Q.** For Cc1nc(C(=O)NC23CC4CC(CC(O)(C4)C2)C3)c(C)n1-c1ccccc1 [Compound 48, N-(3 hydroxyadamant-1-yl)-2,5-dimethyl-1-phenyl-1H-imidazole-4-carboxamide], which melting point is on record?
**A.** 215 to 220 °C

**Q.** For Cc1nc(C(=O)NC2C3CC4CC(C3)CC2C4)c(C)n1-c1ccccc1 (stereo not drawn) [Compound 49], which Ki [2] is on record?
**A.** > 1 µM

**Q.** What about the Ki [1] of the same compound?
**A.** 0.00251 µM

**Q.** And the melting point?
**A.** 245 to 247 °C

**Q.** Which melting point does the source give for Cc1c(C(=O)NC23CC4CC(CC(C4)C2)C3)nc(C(F)(F)F)n1-c1ccccc1 [Compound 64] here?
**A.** 170 to 172 °C

**Q.** For Cc1nc(C(=O)Nc2cccc(Cl)c2Cl)c(C)n1-c1ccccc1 [Compound 65, N-(2,3-dichlorophenyl)-2,5-dimethyl-1-phenyl-1H-imidazole-4-carboxamide], which melting point is on record?
**A.** 127 to 129 °C

**Q.** Which Ki [1] does the source give for Cc1nc(C(=O)NC2CCCCCCC2)c(C)n1-c1ccccc1 [Compound 72] here?
**A.** 0.00501 µM

**Q.** With “N-[(1R,2S,5R)-rel-6,6-dimethylbicyclo[3.1.1]heptan-2-methyl]-5-methyl-1-phenyl-1H-imidazole-4-carboxamide [Compound 1]” as the compound, how does the “Human cannabinoid-CB1 receptor In vitro affinity - pKi” value ([2]; membranes of CHO cells stably transfected with human CB1 receptor, [3H]CP-55,940 radioligand) read?
**A.** <6.0

**Q.** And the “Human cannabinoid-CB2 receptor In vitro affinity - pKi value” ([1]; membranes of CHO cells stably transfected with human CB2 receptor, [3H]CP-55,940 radioligand)?
**A.** 7.3

Reference: patent US8937184B2, “1H-imidazole derivatives as cannabinoid CB2 receptor modulators” (Abbvie B.V., priority 2005, dated 2015)
